Tests used:
Experiment in all cases: microbe, parasite or virus in culture
Parameters in all cases: Broth microdilution MIC in cation-adjusted MHB-Ca2+, growth inhibition per EUCAST reading
[1] = test system: T1, Staphylococcus aureus PB0112; settings: PB0112, 16 h
T1 construct: PB0112
Protocol: (§1) MICs were measured in cation-adjusted Mueller-Hinton broth (MHB) supplemented with 50 μg/mL CaCl2 (MHB-Ca^2+) via broth microdilution in 96-well plates with an inoculum of ∼5 × 10^5 CFU per mL. Antibiotic test concentrations ranged from 0.0625 μg/mL to 32 μg/mL by 2-fold dilutions. Plates were incubated at 37°C for 16 h without shaking, and results were interpreted in accordance with European Committee on Antimicrobial Susceptibility Testing reading guidelines ([72]). S. aureus ATCC 29213 was used as a quality-control strain. TCA cycle defects have been shown previously to cause antibiotic tolerance in laboratory strains of methicillin-sensitive S. aureus (MSSA) ([13], [16]). […] To test this hypothesis, we complemented three of the clinical isolates harboring loss-of-function citZ mutations with either wild-type citZ (pOS1-citZ) or empty vector (pOS1) and then measured bacterial survival through time after exposure to ceftaroline, daptomycin, vancomycin, or the combination of daptomycin plus ceftaroline (Fig. 3). These antibiotics were chosen for their clinical relevance in the treatment of severe MRSA infection.

[2] = test system: T2, Staphylococcus aureus PB0113; settings: PB0113, 16 h
T2 construct: PB0113
Protocol: as §1

[3] = test system: T3, Staphylococcus aureus PB0203; settings: PB0203, 16 h
T3 construct: PB0203
Protocol: as §1

[4] = test system: T4, Staphylococcus aureus PB0412; settings: PB0412, 16 h
T4 construct: PB0412
Protocol: as §1

[5] = test system: T5, Staphylococcus aureus PB0601; settings: PB0601, 16 h
T5 construct: PB0601
Protocol: as §1

[6] = test system: T6, Staphylococcus aureus PB0605; settings: PB0605, 16 h
T6 construct: PB0605
Protocol: as §1

[7] = test system: T7, Staphylococcus aureus PB0609; settings: PB0609, 16 h
T7 construct: PB0609
Protocol: as §1

[8] = test system: T8, Staphylococcus aureus PB0704; settings: PB0704, 16 h
T8 construct: PB0704
Protocol: as §1

[9] = test system: T9, Staphylococcus aureus PB0801; settings: PB0801, 16 h
T9 construct: PB0801
Protocol: as §1

[10] = test system: T10, Staphylococcus aureus PB0803; settings: PB0803, 16 h
T10 construct: PB0803
Protocol: as §1

[11] = test system: T11, Staphylococcus aureus PB0805; settings: PB0805, 16 h
T11 construct: PB0805
Protocol: as §1

[12] = test system: T12, Staphylococcus aureus PB0903; settings: PB0903, 16 h
T12 construct: PB0903
Protocol: as §1

[13] = test system: T13, Staphylococcus aureus PB0905; settings: PB0905, 16 h
T13 construct: PB0905
Protocol: as §1

[14] = test system: T14, Staphylococcus aureus PB1103; settings: PB1103, 16 h
T14 construct: PB1103
Protocol: as §1

[15] = test system: T15, Staphylococcus aureus PB1407; settings: PB1407, 16 h
T15 construct: PB1407
Protocol: as §1

[16] = test system: T16, Staphylococcus aureus PB1408; settings: PB1408, 16 h
T16 construct: PB1408
Protocol: as §1

[17] = test system: T17, Staphylococcus aureus PB1509; settings: PB1509, 16 h
T17 construct: PB1509
Protocol: as §1

[18] = test system: T18, Staphylococcus aureus PB1801; settings: PB1801, 16 h
T18 construct: PB1801
Protocol: as §1

Structure (SMILES): CN[C@H](CC(C)C)C(=O)N[C@H]1C(=O)N[C@@H](CC(N)=O)C(=O)N[C@H]2C(=O)N[C@H]3C(=O)N[C@H](C(=O)N[C@H](C(=O)O)c4cc(O)cc(O)c4-c4cc3ccc4O)[C@H](O)c3ccc(c(Cl)c3)Oc3cc2cc(c3O[C@@H]2O[C@H](CO)[C@@H](O)[C@H](O)[C@H]2O[C@H]2C[C@](C)(N)[C@H](O)[C@H](C)O2)Oc2ccc(cc2Cl)[C@H]1O [Vancomycin]
- MIC ([1]; replicate 1): 2 mg/L
- MIC ([1]; replicate 2): 2 mg/L
- MIC ([2]; replicate 1): 2 mg/L
- MIC ([2]; replicate 2): 2 mg/L
- MIC ([3]; replicate 1): 2 mg/L
- MIC ([3]; replicate 2): 2 mg/L
- MIC ([4]; replicate 1): 2 mg/L
- MIC ([4]; replicate 2): 2 mg/L
- MIC ([5]; replicate 1): 2 mg/L
- MIC ([5]; replicate 2): 2 mg/L
- MIC ([6]; replicate 1): 2 mg/L
- MIC ([6]; replicate 2): 2 mg/L
- MIC ([7]; replicate 1): 2 mg/L
- MIC ([7]; replicate 2): 4 mg/L
- MIC ([8]; replicate 1): 2 mg/L
- MIC ([8]; replicate 2): 2 mg/L
- MIC ([9]; replicate 1): 2 mg/L
- MIC ([9]; replicate 2): 2 mg/L
- MIC ([10]; replicate 1): 2 mg/L
- MIC ([10]; replicate 2): 2 mg/L
- MIC ([11]; replicate 1): 1 mg/L
- MIC ([11]; replicate 2): 1 mg/L
- MIC ([12]; replicate 1): 2 mg/L
- MIC ([12]; replicate 2): 2 mg/L
- MIC ([13]; replicate 1): 2 mg/L
- MIC ([13]; replicate 2): 2 mg/L
- MIC ([14]; replicate 1): 2 mg/L
- MIC ([14]; replicate 2): 2 mg/L
- MIC ([15]; replicate 1): 2 mg/L
- MIC ([15]; replicate 2): 2 mg/L
- MIC ([16]; replicate 1): 4 mg/L
- MIC ([16]; replicate 2): 4 mg/L
- MIC ([17]; replicate 1): 2 mg/L
- MIC ([17]; replicate 2): 2 mg/L
- MIC ([18]; replicate 1): 2 mg/L
- MIC ([18]; replicate 2): 2 mg/L
